What was measured:
[1] = target: GABAB receptor sites (Homo sapiens, UniProt Q9UBS5); experiment: affinity towards GABAB receptor sites; assay type: binding
[2] = test system: rotarod mice; experiment: muscle relaxant activity, rotarod mice; assay type: in vivo; settings: Mus musculus, ip, read-out: ID50-value, muscle relaxant (rotarod mice)
[3] = test system: phenylquinone writhing in mice; experiment: analgesic activity, phenylquinone writhing in mice; assay type: in vivo; settings: Mus musculus, po
[4] = test system: audiogenic seizures in DBA/2 mice; experiment: anticonvulsant activity, audiogenic seizures in DBA/2 mice; assay type: in vivo; settings: Mus musculus, ip, read-out: ID50-value, anticonvulsant (audiogenic seizures in DBA/2 mice)
[5] = lethality at high dose; assay type: in vivo; settings: dose of 200 mg/kg i.p.

Chain of GABAB receptor sites (Q9UBS5 15-961 limits assumed): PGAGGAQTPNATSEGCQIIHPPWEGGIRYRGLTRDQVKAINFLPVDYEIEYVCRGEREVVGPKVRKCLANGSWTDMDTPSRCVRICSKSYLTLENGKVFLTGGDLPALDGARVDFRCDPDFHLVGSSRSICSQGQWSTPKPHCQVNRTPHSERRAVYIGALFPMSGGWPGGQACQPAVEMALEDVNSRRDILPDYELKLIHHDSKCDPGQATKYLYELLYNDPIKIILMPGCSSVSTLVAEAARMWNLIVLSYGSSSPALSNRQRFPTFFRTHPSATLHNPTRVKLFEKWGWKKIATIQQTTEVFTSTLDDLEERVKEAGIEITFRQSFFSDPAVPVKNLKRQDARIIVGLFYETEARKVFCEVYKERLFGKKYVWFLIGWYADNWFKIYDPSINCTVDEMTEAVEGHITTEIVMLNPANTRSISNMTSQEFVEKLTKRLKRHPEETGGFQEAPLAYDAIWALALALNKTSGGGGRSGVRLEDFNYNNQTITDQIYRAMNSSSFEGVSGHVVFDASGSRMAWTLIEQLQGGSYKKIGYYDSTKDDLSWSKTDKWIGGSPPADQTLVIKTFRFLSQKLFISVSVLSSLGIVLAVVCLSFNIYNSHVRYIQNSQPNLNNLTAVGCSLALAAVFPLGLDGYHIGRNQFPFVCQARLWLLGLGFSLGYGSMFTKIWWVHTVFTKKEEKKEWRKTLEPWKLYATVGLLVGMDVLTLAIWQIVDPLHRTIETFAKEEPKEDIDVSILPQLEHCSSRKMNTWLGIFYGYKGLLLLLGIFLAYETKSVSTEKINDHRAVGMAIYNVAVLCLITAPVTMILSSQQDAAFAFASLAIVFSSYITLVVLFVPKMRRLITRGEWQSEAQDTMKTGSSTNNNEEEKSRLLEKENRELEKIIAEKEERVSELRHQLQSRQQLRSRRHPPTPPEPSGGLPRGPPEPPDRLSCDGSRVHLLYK
Chain of GABAB receptor sites (O75899 42-941 partner): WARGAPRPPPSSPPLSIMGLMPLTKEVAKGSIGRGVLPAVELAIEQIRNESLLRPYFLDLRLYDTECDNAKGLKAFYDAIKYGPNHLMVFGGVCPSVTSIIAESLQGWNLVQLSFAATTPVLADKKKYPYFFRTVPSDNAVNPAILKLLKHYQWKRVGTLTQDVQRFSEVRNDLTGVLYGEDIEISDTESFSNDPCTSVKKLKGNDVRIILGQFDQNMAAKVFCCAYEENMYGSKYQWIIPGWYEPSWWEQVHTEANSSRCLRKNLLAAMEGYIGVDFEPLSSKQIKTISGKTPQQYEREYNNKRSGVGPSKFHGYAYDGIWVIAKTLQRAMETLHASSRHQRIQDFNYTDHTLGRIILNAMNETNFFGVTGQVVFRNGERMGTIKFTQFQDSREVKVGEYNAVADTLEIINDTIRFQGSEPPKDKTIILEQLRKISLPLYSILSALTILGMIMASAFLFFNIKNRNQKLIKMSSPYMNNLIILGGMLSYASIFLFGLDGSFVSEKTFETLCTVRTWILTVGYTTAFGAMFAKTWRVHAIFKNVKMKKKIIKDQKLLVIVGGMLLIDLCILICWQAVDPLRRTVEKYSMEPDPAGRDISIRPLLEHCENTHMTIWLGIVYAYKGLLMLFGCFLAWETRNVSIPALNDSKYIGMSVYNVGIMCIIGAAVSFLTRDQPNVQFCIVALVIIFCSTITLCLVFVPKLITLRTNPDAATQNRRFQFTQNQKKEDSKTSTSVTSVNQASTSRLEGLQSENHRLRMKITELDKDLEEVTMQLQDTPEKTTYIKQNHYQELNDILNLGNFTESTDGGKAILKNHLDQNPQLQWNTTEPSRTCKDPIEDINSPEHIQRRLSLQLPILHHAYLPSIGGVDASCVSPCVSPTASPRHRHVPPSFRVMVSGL

| Structure (SMILES) | IC50 ([1]; read-out: IC50-value at the GABAB receptor site) | ED50 [2] | ED50 [3] | ED50 [4] | deaths [5] | activity relative to baclofen (times more pronounced) ([1]; compared with baclofen) |
| --- | --- | --- | --- | --- | --- | --- |
| NCC(CP(O)O)c1ccc(Cl)cc1 (stereo not drawn) [Example 8, 3-amino-2-(4-chlorophenyl)propylphosphonous acid] | 0.035 µM | 6 to 9 mg/kg | 4 mg/kg | 6 mg/kg | no deaths were observed |  |
| NCCCP(O)O [Example 1, 3-aminopropylphosphonous acid] |  |  |  |  |  | at least 20 times |

Reference: patent US5457095A, “Substituted propane-phosponous acid compounds” (Ciba-Geigy Corporation, priority 1984, dated 1995)
